From patent US8937078B2, “Quinazolinones as prolyl hydroxylase inhibitors” (Janssen Pharmaceutica NV, priority 2009, dated 2015)

Tests used:
human PHD2 (PHD2181-417) = target: T1, human PHD2 (PHD2181-417) (Homo sapiens, UniProt Q9GZT9); assay: PHD enzymatic assay ([14C]-succinic acid production); format: biochemical; conditions: PHD2181-417, HIF-1α peptide 10 μM, average of results; for IC50: read-out: Enzyme pIC50 (converted)
T1 construct: Smt (SUMO) tag (cleaved yes); made in house; host or cells: E. coli BL21 (pBAD vector)
Procedure, shortened: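 Activity measured as [14C]-succinic acid formed from [5-14C]-2-oxoglutarate over 10 minutes, with peptide substrate at 10 μM, in Tris-HCl pH 7.5 buffer containing catalase, DTT and ascorbate. Unreacted oxoglutarate removed by DNP derivatisation; supernatant beta-counted.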

Hep-3B cells = assay: Cellular assay: erythropoietin secretion in Hep-3B cells; format: cell-based, human; conditions: 100 μM compound, 24 hours, percent of EPO secretion relative to assay control compound 7-[(4-Chloro-phenyl)-(5-methyl-isoxazol-3-ylamino)-methyl]-quinolin-8-ol; for Emax at 100 µM: Homo sapiens, Hep3B, read-out: Cellular % EPO Stimulation
Procedure, shortened: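 Hep-3B cells in DMEM with 10% FBS, treated 24 h after plating with compounds at 100 μM final for a further 24 h. Secreted EPO in supernatant measured by MSD electrochemiluminescence sandwich immunoassay with anti-EPO detection antibody.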

T1 sequence (Q9GZT9 181-417): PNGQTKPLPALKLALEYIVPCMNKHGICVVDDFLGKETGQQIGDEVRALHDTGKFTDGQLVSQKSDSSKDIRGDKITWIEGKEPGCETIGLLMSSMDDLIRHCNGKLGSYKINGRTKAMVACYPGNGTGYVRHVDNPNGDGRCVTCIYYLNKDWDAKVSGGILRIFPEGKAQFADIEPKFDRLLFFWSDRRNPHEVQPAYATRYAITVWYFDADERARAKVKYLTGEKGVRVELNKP

| SMILES | IC50 (human PHD2 (PHD2181-417)) [nM] | Emax at 100 µM (Hep-3B cells) [%] | Enzyme pIC50 (human PHD2 (PHD2181-417)) | Cellular % EPO Stimulation (Hep-3B cells) [%] |
| --- | --- | --- | --- | --- |
| O=C(O)c1cnn(-c2nc3cc(Oc4ccccc4)ccc3c(=O)[nH]2)c1 [Example 66, 1-(4-Oxo-7-phenoxy-3,4-dihydro-quinazolin-2-yl)-1H-pyrazole-4-carboxylic acid] | 63.1 | 41 |  |  |
| NC(CO)(CO)CO.O=C(O)c1cnn(-c2nc3cc(C4CCOCC4)ccc3c(=O)[nH]2)c1 [Example 67, 1-[4-Oxo-7-(tetrahydro-pyran-4-yl)-3,4-dihydro-quinazolin-2-yl]-1H-pyrazole-4-carboxylic acid tris(hydroxymethyl)aminomethane salt] |  |  | 7.8 | 18 |
| O=C(O)c1cnn(-c2nc3cc(Cl)c(-c4ccccc4)cc3c(=O)[nH]2)c1 [Example 68, 1-(7-Chloro-4-oxo-6-phenyl-3,4-dihydro-quinazolin-2-yl)-1H-pyrazole-4-carboxylic acid] | 20 | 59 |  |  |
| Cc1ccccc1-c1ccc2nc(-n3cc(C(=O)O)cn3)[nH]c(=O)c2c1 [Example 69, 1-(4-Oxo-6-o-tolyl-3,4-dihydro-quinazolin-2-yl)-1H-pyrazole-4-carboxylic acid] |  | 57 | 8.1 |  |
| O=C(O)c1cnn(-c2nc3ccc(-c4cccc(-c5ccccc5)c4)cc3c(=O)[nH]2)c1 [Example 70, 1-(6-Biphenyl-3-yl-4-oxo-3,4-dihydro-quinazolin-2-yl)-1H-pyrazole-4-carboxylic acid] | 31.6 | 41 |  |  |
| COc1ccc(S(=O)(=O)c2cc3c(=O)[nH]c(-n4cc(C(=O)O)cn4)nc3cc2Cl)cc1OC [Example 71, 1-[7-Chloro-6-(3,4-dimethoxy-benzenesulfonyl)-4-oxo-3,4-dihydro-quinazolin-2-yl]-1H-pyrazole-4-carboxylic acid] | 15.8 | 16 |  |  |
| CC(C)(C)c1ccc(S(=O)(=O)c2cc3c(=O)[nH]c(-n4cc(C(=O)O)cn4)nc3cc2Cl)cc1 [Example 72, 1-[6-(4-tert-Butyl-benzenesulfonyl)-7-chloro-4-oxo-3,4-dihydro-quinazolin-2-yl]-1H-pyrazole-4-carboxylic acid] | 50.1 | 22 |  |  |
| O=C(O)c1cnn(-c2nc3ccc(COc4ccccc4)cc3c(=O)[nH]2)c1 [Example 74, 1-(4-Oxo-6-phenoxymethyl-3,4-dihydro-quinazolin-2-yl)-1H-pyrazole-4-carboxylic acid] | 31.6 | 35 |  |  |
| Cc1cccc(C)c1OCc1ccc2nc(-n3cc(C(=O)O)cn3)[nH]c(=O)c2c1 [Example 75, 1-[6-(2,6-Dimethyl-phenoxymethyl)-4-oxo-3,4-dihydro-quinazolin-2-yl]-1H-pyrazole-4-carboxylic acid] | 20 | 20 |  |  |
| C#Cc1ccc2nc(-n3cc(C(=O)O)cn3)[nH]c(=O)c2c1 [Example 76, 1-(6-Ethynyl-4-oxo-3,4-dihydro-quinazolin-2-yl)-1H-pyrazole-4-carboxylic acid] | 31.6 | 16 |  |  |
| C=C(Cl)c1ccc2nc(-n3cc(C(=O)O)cn3)[nH]c(=O)c2c1 [Example 77, 1-[6-(1-Chloro-vinyl)-4-oxo-3,4-dihydro-quinazolin-2-yl]-1H-pyrazole-4-carboxylic acid] | 25.1 | 27 |  |  |
| O=C(O)c1cnn(-c2nc3cc(Sc4ccccc4)ccc3c(=O)[nH]2)c1 [Example 78, 1-(4-Oxo-7-phenylsulfanyl-3,4-dihydro-quinazolin-2-yl)-1H-pyrazole-4-carboxylic acid] | 39.8 | 5 |  |  |
| O=C(O)c1cnn(-c2nc3cc(Sc4ccc(Cl)cc4)ccc3c(=O)[nH]2)c1 [Example 79, 1-[7-(4-Chloro-phenylsulfanyl)-4-oxo-3,4-dihydro-quinazolin-2-yl]-1H-pyrazole-4-carboxylic acid] | 39.8 | 6 |  |  |
| O=C(O)c1cnn(-c2nc3cc(Sc4ccccc4Cl)ccc3c(=O)[nH]2)c1 [Example 80, 1-[7-(2-Chloro-phenylsulfanyl)-4-oxo-3,4-dihydro-quinazolin-2-yl]-1H-pyrazole-4-carboxylic acid] | 31.6 | 5 |  |  |
| O=C(O)c1cnn(-c2nc3cc(S(=O)(=O)c4ccccc4)ccc3c(=O)[nH]2)c1 [Example 81, 1-(7-Benzenesulfonyl-4-oxo-3,4-dihydro-quinazolin-2-yl)-1H-pyrazole-4-carboxylic acid] | 79.4 | 26 |  |  |
| O=C(O)c1cnn(-c2nc3cc(S(=O)(=O)c4ccc(Cl)cc4)ccc3c(=O)[nH]2)c1 [Example 82, 1-[7-(4-Chloro-benzenesulfonyl)-4-oxo-3,4-dihydro-quinazolin-2-yl]-1H-pyrazole-4-carboxylic acid] | 63.1 | 15 |  |  |
| O=C(O)c1cnn(-c2nc3cc(S(=O)(=O)c4ccccc4Cl)ccc3c(=O)[nH]2)c1 [Example 83, 1-[7-(2-Chloro-benzenesulfonyl)-4-oxo-3,4-dihydro-quinazolin-2-yl]-1H-pyrazole-4-carboxylic acid] | 100 | 11 |  |  |
| O=C(O)c1cnn(-c2nc3cc(Cl)c(N4CCc5ccccc5C4)cc3c(=O)[nH]2)c1 [Example 84, 1-[7-Chloro-6-(3,4-dihydro-1H-isoquinolin-2-yl)-4-oxo-3,4-dihydro-quinazolin-2-yl]-1H-pyrazole-4-carboxylic acid] | 20 | 101 |  |  |
| O=C(O)c1cnn(-c2nc3cc(Cl)c(N4CCc5ccc(Br)cc5C4)cc3c(=O)[nH]2)c1 [Example 85, 1-[6-(7-Bromo-3,4-dihydro-1H-isoquinolin-2-yl)-7-chloro-4-oxo-3,4-dihydro-quinazolin-2-yl]-1H-pyrazole-4-carboxylic acid] | 25.1 | 49 |  |  |
| O=C(O)c1cnn(-c2nc3cc(F)c(Oc4cc(Cl)ccc4Cl)cc3c(=O)[nH]2)c1 [Example 87, 1-[6-(2,5-dichloro-phenoxy)-7-fluoro-4-oxo-3,4-dihydro-quinazolin-2-yl]-1H-pyrazole-4-carboxylic acid] | 20 | 84 |  |  |
| Cc1ccc(Oc2cc3c(=O)[nH]c(-n4cc(C(=O)O)cn4)nc3cc2F)cc1C [Example 88, 1-[6-(3,4-dimethyl-phenoxy)-7-fluoro-4-oxo-3,4-dihydro-quinazolin-2-yl]-1H-pyrazole-4-carboxylic acid] | 15.8 | 95 |  |  |
| Cc1cc(C)cc(Oc2cc3c(=O)[nH]c(-n4cc(C(=O)O)cn4)nc3cc2C)c1 [Example 89, 1-[6-(3,5-dimethyl-phenoxy)-7-methyl-4-oxo-3,4-dihydro-quinazolin-2-yl]-1H-pyrazole-4-carboxylic acid] | 25.1 | 137 |  |  |
| Cc1cc2nc(-n3cc(C(=O)O)cn3)[nH]c(=O)c2cc1Oc1cc(Cl)ccc1Cl [Example 90, 1-[6-(2,5-dichloro-phenoxy)-7-methyl-4-oxo-3,4-dihydro-quinazolin-2-yl]-1H-pyrazole-4-carboxylic acid] | 25.1 | 113 |  |  |
| Cc1cc2nc(-n3cc(C(=O)O)cn3)[nH]c(=O)c2cc1Oc1cccc(-c2ccccc2)c1 [Example 91, 1-[6-(biphenyl-3-yloxy)-7-methyl-4-oxo-3,4-dihydro-quinazolin-2-yl]-1H-pyrazole-4-carboxylic acid] | 25.1 | 75 |  |  |
